In assay [1] the target is T1, 5-hydroxytryptamine receptor 1A (Rattus norvegicus, UniProt P19327).
T1 sequence (P19327 whole entry): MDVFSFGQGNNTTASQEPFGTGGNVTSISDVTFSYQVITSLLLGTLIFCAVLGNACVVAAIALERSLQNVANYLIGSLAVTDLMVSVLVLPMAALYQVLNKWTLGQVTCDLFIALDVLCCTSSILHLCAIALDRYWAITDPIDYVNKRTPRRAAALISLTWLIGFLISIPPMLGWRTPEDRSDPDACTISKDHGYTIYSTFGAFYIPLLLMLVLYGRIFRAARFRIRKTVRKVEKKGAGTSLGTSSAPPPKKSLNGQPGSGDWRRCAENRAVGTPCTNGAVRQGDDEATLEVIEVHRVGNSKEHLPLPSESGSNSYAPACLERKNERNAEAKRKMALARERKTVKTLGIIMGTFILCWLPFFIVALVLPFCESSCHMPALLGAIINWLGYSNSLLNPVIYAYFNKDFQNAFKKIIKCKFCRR
Nature of the assay: Inhibition of (+)-8-OH-DPAT stimulated [35S]GTP-gamma-S, binding to 5-hydroxytryptamine 1A receptor in hippocampal membranes. Format: functional, cell membranes. In general terms: GTPγS resists hydrolysis and so accumulates on activated G proteins.

The target in assay [2] is T2, 5-hydroxytryptamine receptor 1A (Rattus norvegicus) (UniProt P19327).
T2 sequence (whole entry): T1 sequence (P19327 whole entry)
Nature of the assay: Percent inhibition of (+)-8-OH-DPAT stimulated [35S]GTP-gamma-S, binding to 5-hydroxytryptamine 1A receptor in hippocampal membranes. The assay is classed as functional, cell membranes. Also noted: concentration or dose not given beside the values. The settings on record: concentration not given here.

Assay [3] addresses T2, 5-hydroxytryptamine receptor 1A (Rattus norvegicus). Nature of the assay: Antagonist activity to stimulate binding of [35S]GTP-gamma-S, to 5-hydroxytryptamine 1A receptor in isolated rat hippocampal membranes. The note with it: Membrane, scale: (fM of GTP-gammaS bound). The assay is classed as functional, cell membranes.
Assay [4] concerns the target T3, 5-hydroxytryptamine receptor 1A (Mus musculus) (UniProt Q64264).
T3 sequence (whole entry): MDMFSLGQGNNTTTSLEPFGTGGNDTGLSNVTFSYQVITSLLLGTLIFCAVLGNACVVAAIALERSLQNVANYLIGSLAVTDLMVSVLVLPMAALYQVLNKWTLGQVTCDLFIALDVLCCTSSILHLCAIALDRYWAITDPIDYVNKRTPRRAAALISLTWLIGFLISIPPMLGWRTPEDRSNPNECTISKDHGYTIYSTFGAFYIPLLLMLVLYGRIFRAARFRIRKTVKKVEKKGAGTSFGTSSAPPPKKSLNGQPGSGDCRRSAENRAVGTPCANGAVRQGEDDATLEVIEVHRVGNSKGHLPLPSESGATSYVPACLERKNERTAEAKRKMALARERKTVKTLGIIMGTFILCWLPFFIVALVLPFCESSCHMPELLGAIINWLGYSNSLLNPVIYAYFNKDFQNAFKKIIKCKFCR
Nature of the assay: Antagonist activity at 5-hydroxytryptamine 1A receptor against (+)-8-OH-DPAT induced hypothermia in mice at 1 mg/kg after 15 min. The assay is classed as functional, organism-based. Details: dose 1 mg/kg.

For assay [5], the target named is T3, 5-hydroxytryptamine receptor 1A (Mus musculus). Kind of assay: Antagonist activity at 5-hydroxytryptamine 1A receptor against (+)-8-OH-DPAT induced hypothermia in mice at 1 mg/kg after 30 min. The assay is classed as functional, organism-based. Details: dose 1 mg/kg.
Assay [6] deals with T2, 5-hydroxytryptamine receptor 1A (Rattus norvegicus). Kind of assay: Percent increase of R(+)-8-OH-DPAT stimulated [35S]GTP-gamma-S, binding to 5-hydroxytryptamine 1A receptor in isolated rat hippocampal membranes. The assay is classed as functional, cell membranes. The note with it: Membrane.
The target in assay [7] is Sodium-dependent serotonin transporter (Rattus norvegicus, UniProt P31652). Nature of the assay: Binding affinity towards Serotonin transporter (5-HTT) in rat frontal cortex homogenates. Format: tissue-based.
Sequence of Sodium-dependent serotonin transporter (P31652 whole entry): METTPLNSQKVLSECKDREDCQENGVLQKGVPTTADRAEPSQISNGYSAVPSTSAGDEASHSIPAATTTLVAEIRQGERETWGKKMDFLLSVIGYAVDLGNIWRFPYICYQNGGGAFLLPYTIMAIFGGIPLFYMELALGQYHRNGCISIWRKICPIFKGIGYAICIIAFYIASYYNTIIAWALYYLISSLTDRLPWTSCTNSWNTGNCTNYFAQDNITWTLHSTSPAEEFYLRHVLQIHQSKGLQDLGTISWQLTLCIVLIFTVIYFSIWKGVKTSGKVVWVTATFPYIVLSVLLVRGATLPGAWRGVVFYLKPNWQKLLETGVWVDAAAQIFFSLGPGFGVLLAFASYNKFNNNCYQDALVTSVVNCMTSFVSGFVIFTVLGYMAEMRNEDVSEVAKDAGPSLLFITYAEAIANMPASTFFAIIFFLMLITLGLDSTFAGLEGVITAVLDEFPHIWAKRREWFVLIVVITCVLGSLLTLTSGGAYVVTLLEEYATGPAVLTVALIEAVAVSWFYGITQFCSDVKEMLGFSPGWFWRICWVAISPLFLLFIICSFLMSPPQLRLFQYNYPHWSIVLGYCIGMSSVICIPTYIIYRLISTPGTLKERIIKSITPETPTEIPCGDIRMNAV
For assay [8], the target named is T3, 5-hydroxytryptamine receptor 1A (Mus musculus). Kind of assay: Antagonist activity at 5-hydroxytryptamine 1A receptor against (+)-8-OH-DPAT induced hypothermia in mice at 10 mg/kg after 15 min. Format: functional, organism-based. Also noted: dose 10 mg/kg.
Assay [9] shares this target. Kind of assay: Antagonist activity at 5-hydroxytryptamine 1A receptor against (+)-8-OH-DPAT induced hypothermia in mice at 10 mg/kg after 60 min. The assay is classed as functional, organism-based. Details: dose 10 mg/kg.
The target is the same in assay [10]. Kind of assay: Antagonist activity at 5-hydroxytryptamine 1A receptor against (+)-8-OH-DPAT induced hypothermia in mice at 1 mg/kg after 60 min. Details: dose 1 mg/kg. Format: functional, organism-based.
Assay [11] addresses T2, 5-hydroxytryptamine receptor 1A (Rattus norvegicus). Nature of the assay: Inhibition of (+)-8-OH-DPAT stimulated [35S]GTP-gamma-S, binding in rat hippocampal membranes. The settings on record: Hippocampus, Membrane, scale: (fM of GTP-gammaS bound). The assay is classed as functional, cell membranes.
The target is the same in assay [12]. Nature of the assay: Antagonist activity to stimulate binding of [35S]-GTP-gamma S binding to 5-hydroxytryptamine 1A receptor in isolated rat hippocampal membranes. The note with it: Membrane, scale: (fM of GTP-gammaS bound). The assay is classed as functional, cell membranes.
For assay [13], the target named is T1, 5-hydroxytryptamine receptor 1A. Kind of assay: Binding affinity towards 5-hydroxytryptamine 1A receptor in rat frontal cortex homogenates. Format: tissue-based.
The target of assay [14] is T3, 5-hydroxytryptamine receptor 1A (Mus musculus). Kind of assay: Antagonist activity at 5-hydroxytryptamine 1A receptor against (+)-8-OH-DPAT induced hypothermia in mice at 10 mg/kg after 30 min. The assay is classed as functional, organism-based. Details: dose 10 mg/kg.

Turning to `OC(CCN1CCN(c2cccc3c2OCCO3)CC1)c1csc2ccccc12` (stereo not given), the IC50 (commonly the concentration needed to halve the response being measured) in assay [1] turned out to be 56.2 nM. For the same molecule, the inhibition (as a rule, the drop in the measured response relative to a control, in per cent) in assay [2] worked out at 90%. Moreover, the Basal in [3] worked out at 15.6; in assay [11], 18.5. Further, the Change in body temperature was -2.9 °C in [4]; -2.47 °C in assay [5]; -1.38 °C in assay [8]; -0.5 °C in assay [9]; -1.94 °C in assay [10]; -1.03 °C in assay [14]. In [6], the Increase is 3.4%. Moreover, the figures for the Ki in [7] and in assay [13] (read-out: Ki) were 50 nM and 5.7 nM, respectively. Moreover, the Max was found to be 19.1 in assay [11] and 16.1 in assay [12].

As for `CCCN(CCC)C1CCc2cccc(O)c2C1` (stereo not given), the results for the Basal in assay [3] and in assay [11] were 13.5 and 13, respectively. In assay [6], this molecule yielded an Increase of 91.8%. Moreover, the results for the Max in assay [11] and in assay [12] were 23.8 and 25.9, respectively.

In the case of `OC(CCN1CCN(c2cccc3c2OCCCO3)CC1)c1csc2ccccc12` (stereo not given), the inhibition constant (Ki) (in general, the dissociation constant of the complex between target and ligand, obtained from inhibition or displacement) was determined as 77 nM in assay [7] and 1.9 nM in assay [13].

The molecule `OC(CCN1CCN(c2cccc3cccnc23)CC1)c1csc2ccccc12` (stereo not given) returned an IC50 in assay [1] of 18 nM. Further, the inhibition in assay [2] was found to be 69%. In addition, the Basal in assay [3] is 11.9; in assay [11] it was 16.4. Moreover, the Change in body temperature in [4] is -2.38 °C; in assay [5] it was -1.86 °C; in assay [8] it was -0.8 °C; in assay [9], -0.2 °C; in [10], -1.09 °C; in assay [14], -0.52 °C. In addition, in assay [6], the Increase was determined as 31%. Also, the Ki in assay [7] stood at 24 nM; in [13] (read-out: Ki), 6.3 nM. Further, the Max in assay [11] turned out to be 19.7; in [12], 15.6.

On to `OC(CCN1CCN(c2cccc3ccccc23)CC1)c1csc2ccccc12` (stereo not given), for which the Ki was 81.7 nM in [7] and 66.7 nM in [13] (read-out: Ki).

`OC(CCN1CCN(c2ccc3sccc3c2)CC1)c1csc2ccccc12` (stereo not given): the Ki in assay [7] was 3.2 nM; in assay [13] (read-out: Ki), 913 nM.

Turning to `OC(CCN1CCN(c2cccc3c2OCO3)CC1)c1csc2ccc(F)cc12` (stereo not given), the results for the inhibition constant (Ki) in [7] and in assay [13] (read-out: Ki) were 58 nM and 9.4 nM, respectively.

`OC(CCN1CCN(c2cccc3c2OCCCO3)CC1)c1csc2ccc(F)cc12` (stereo not given) showed an IC50 in [1] of 360 nM. For the same molecule, the inhibition in [2] is 84%. Further, the Basal came to 14.4 in assay [3] and 18.7 in assay [11]. For the same molecule, the Increase in assay [6] was determined as 22.8%. For the same molecule, the Ki in [7] worked out at 21.2 nM; in [13] (read-out: Ki), 3 nM. The Max in assay [11] came to 20.4; in assay [12], 17.7.

`OC(CCN1CCN(c2cccc3[nH]ccc23)CC1)c1csc2ccc(F)cc12` (stereo not given): the IC50 in assay [1] stood at 16.1 nM. The inhibition in assay [2] came out at 110%. Further, the Basal in [3] amounted to 10.1; in assay [11] it was 11.2. The Change in body temperature was -3.28 °C in [4]; -3.61 °C in [5]; -0.95 °C in assay [8]; -0.95 °C in assay [9]; -2.72 °C in assay [10]; -0.89 °C in [14]. Also, the Increase in assay [6] was determined as 35.5%. The Max in [11] was found to be 10.1; in [12] it was 13.7.

`OC(CCN1CCN(c2cccc3c2OCCO3)CC1)c1csc2ccc(F)cc12` (stereo not given) registered a concentration for half-maximal inhibition (IC50) in assay [1] of 31.2 nM. Also, in [2], the inhibition is 101%. Besides, the Basal in assay [3] is 11.9; in assay [11], 19.1. Moreover, the Change in body temperature is -1.49 °C in assay [4]; -1.04 °C in [5]; -1.33 °C in assay [8]; -0.84 °C in [9]; -1.04 °C in [10]; -0.72 °C in assay [14]. Moreover, the Increase in assay [6] was 17.9%. Further, the affinity in assay [7] corresponds to a Ki of 16 nM. Also, the Max worked out at 18.9 in assay [11] and 14 in assay [12].

In the case of `OC(CCN1CCN(c2cnc3ccccc3c2)CC1)c1csc2ccccc12` (stereo not given), the Ki came to 4.2 nM in assay [7] and 995 nM in assay [13] (read-out: Ki).

Molecule `OC(CCN1CCN(c2cccc3[nH]ccc23)CC1)c1csc2ccccc12` (stereo not given) showed a concentration for half-maximal inhibition (IC50) in assay [1] of 31.2 nM. The inhibition in assay [2] turned out to be 90%. Also, the values for the Basal in assay [3] and in assay [11] were 13.4 and 12.8, respectively. Besides, the Change in body temperature in [4] is -2.08 °C; in [5], -1.59 °C; in assay [8], -1.03 °C; in [9], -0.8 °C; in [10], -1.13 °C; in assay [14] it was 0.84 °C. Also, the Increase in assay [6] worked out at 26.3%. In addition, the Max is 13.9 in assay [11] and 16.9 in [12].

As to `OC(CCN1CCN(c2cccc3cccnc23)CC1)c1csc2ccc(F)cc12` (stereo not given), the Basal in assay [3] is 13.9. The molecule also showed an Increase in assay [6] of 71.4%. This molecule also returned a Max in assay [12] of 23.9.

`OC(CCN1CCN(c2cccc3ccccc23)CC1)c1csc2ccc(F)cc12` (stereo not given) gave an inhibitory constant (Ki) in assay [7] of 6 nM.

With `OC(CCN1CCN(c2cccc3ncccc23)CC1)c1csc2ccccc12` (stereo not given), the figures for the inhibitory constant (Ki) in [7] and in assay [13] (read-out: Ki) were 32.5 nM and 36.8 nM, respectively.

For the origin of these results see ChEMBL document CHEMBL1135778, “Synthesis and molecular modeling of new 1-aryl-3-[4-arylpiperazin-1-yl]-1-propane derivatives with high affinity at the serotonin transporter and at 5-HT(1A) receptors” (J Med Chem, 2002).
